Entries after “also recorded” stand apart in the source; their conditions may differ.
How the values were obtained:
[1] = system: Akt; experiment: pAkt (S473) immunoblot in activated CD4 T cells; type: cell-based, mouse; conditions: 18 h activated T cells
Description: To monitor the activity of the PI3K/mTOR axis in newly activated CD4 T cells we analysed phosphorylation of S6 ribosomal protein (pS6), a target of the mTOR-regulated p70 S6 kinase S6K1. TCR/CD28 signaling (but not anti-CD28 alone) induced high levels of pS6 (FIG. 10a). The maintenance of mTOR activity in 18 hour activated T cells required continued TCR signaling, since S6 phosphorylation declined when TCR signals were withdrawn (FIG. 10b). […] The serine/threonine protein kinase Akt/PKB is rapidly phosphorylated in response to signaling through TCR/CD28 but, in contrast to pS6, pAkt (S473) was no longer detected 18 h after initiation of TCR/CD28 signaling (FIG. 10c). […] Increased Akt phosphorylation in response to TCR signal deprivation and rapamycin treatment is incompatible with a traditional linear signaling pathway (FIG. 10d) but consistent with a network model in which Akt activity is controlled both by PDK1 and by mTORC2. In this model, mTORC2 (mTOR/rictor/Sin 1) is under negative feedback control of mTORC1 (mTOR/raptor) via S6K1, which phosphorylates and inhibits IRS1 (insulin receptor substrate 1) and reduces Akt activation via PI3K, PDK1 and mTORC2 (FIG. 10e). Applied to our data, withdrawal of TCR signaling lowers mTORC1 and S6K1 activity (FIG. 10b), which reduces feedback inhibition of mTORC2 and explains the observed increase in pAkt (S473) (FIG. 10c). […]

[2] = system: naive CD62LhiCD4+CD25− LN T cells; experiment: Foxp3 induction in newly activated naive CD4 T cells (intracellular staining); type: cell-based, mouse

Substance: TGFβ
- pAkt (S473) [1]: reappeared; also recorded: increased pAkt S473
- percentage of cells expressing Foxp3 ([2]; added 18 hours after activation with TCR signal deprivation, read within 24-48 hours): 46.0±15.1%
- % Foxp3+ cells, activation with anti-TCR only ([2]; no costimulation, average of two experiments): 7%
- Foxp3 expression in control cultures, TCR signal deprived cultures subtracted ([2]; serum free AIM-V medium, without anti TGFβ and SB431542, 24-48 hours / 2 days): 22.3±7.0%
- % Foxp3+ cells, activation with anti-TCR + anti-CD28 ([2]; with costimulation, average of two experiments): 46%

From patent US9314485B2, “Use of PI3K M-TOR and AKT inhibitors to induce FOXP3 expression and generate regulatory T cells” (Medical Research Council, priority 2006, dated 2016)
